Experimental data published in patent US11389396B2, “Tumescent antibiotic injection for treatment of chronic skin and soft tissue infections” (The Regents of the University of California, priority 2016, dated 2022).

How the values were obtained:
[1] = tested on: MRSA strains; details: 1 g/100 mL cefazolin in tumescent solution; cited from earlier work
[2] = healthy tissue; cited from earlier work
[3] = in vivo; cited from earlier work
[4] = CT images roughly every 10 min of 20 mL tumescent injections, local fraction of contrast
Experimental: In a different experiment we took CT images roughly every 10 min instead of every hour in order to see the initially rapid dynamics. An axial cross-sectional image is shown in FIG. 14 before and after two 20 mL tumescent injections on symmetric sides of the anesthetized adult Yucatan pig's abdomen.
The initial rise is due to the spreading of the tumescent fluid after the completion of the injection into unexpanded tissue. […] We verified this by multiplying the total volume and mean curves to get a measure of the “total contrast” that remains localized in the tumescence (FIG. 15 bottom, left). Dividing the total contrast curve by its maximum yields the “Localized Fraction” curves of FIG. 15 (bottom, right).

[5] = CT scans over seven hours of tumescent injections of saline containing iodine contrast; assay type: in vivo, Yucatan pig
Experimental: To more accurately determine the timescale over which the local antibiotic concentration remains high, we performed CT scans over a long time period.
The figures are CTs viewing the abdomen of the pig with the head towards the top of the figure. Tumescent injections are seen as 4 rows, and 2 columns of large circular white regions, with injection volumes 20 mL, 10 mL, 5 mL and 2.5 mL from top row to bottom. There is one column of 4 tiny white dots along the center of the abdomen that are skin markers placed in the same axial plane as the location of the injections for reference. It is clear that the iodine concentration may remain high for several hours. While the 20 mL injections are clearly visible for 5 hours, the 2.5 mL injections are easily seen for only 3 hours.
Each value along the lineout represents the max attenuation value below that point on a line perpendicular to the surface (Maximum Intensity Projection mode). For comparison, we measured the attenuation of a vial of pure infusate to be 500 HU, and the attenuation of normal subcutaneous tissue to be about −90 HU. A concentration equal to at least half the initial value (or attenuation of […]—half way between the extremes) is maintained for at least 4 hours.

In the case of Cc1nnc(SCC2=C(C(=O)O)N3C(=O)[C@@H](NC(=O)Cn4cnnn4)[C@H]3SC2)s1 [cefazolin], the “concentration relative to the MIC” value [1] is given as “above the MIC for most, if not all, MRSA strains”.
For CNC[C@H](O)c1ccc(O)c(O)c1 [epinephrine], the “systemic absorption time extended by use of a vasoconstrictor” value [2] is given as greater than 8 h.
For CO/N=C(\C(=O)N[C@@H]1C(=O)N2C(C(=O)O)=C(CSc3nc(=O)c(=O)[nH]n3C)CS[C@H]12)c1csc(N)n1 [Ceftriaxone], the “concentration shown to be safe, relative to 1 g/100 mL cefazolin” value [3] is given as 35 times higher concentrations.
In the case of II [iodine], the “drop in the local fraction (take-up by lymph and capillaries)” value ([4]; over the 70 minutes of the experiment, anesthetized adult Yucatan pig) was roughly 30%, the “timescale of spontaneous spreading” value ([4]; tumescent injection, CT) was less than 5 min and the “timescale of take up by the serum” value ([4]; tumescent injection, CT) was roughly 1 h. The “time for which the injection is easily seen on CT” value ([5]; 2.5 mL subcutaneous abdominal injection, saline with 2 g/100 mL iodine contrast, healthy adult Yucatan pig) was 3 h, the “time for which the injection is clearly visible on CT” value ([5]; 20 mL subcutaneous abdominal injection, saline with 2 g/100 mL iodine contrast, healthy adult Yucatan pig) was 5 h and the “time for which a concentration of at least half the initial value is maintained” value ([5]; CT lineouts, maximum intensity projection, attenuation 155 as half way point) was “at least 4 hours”.
